Results from patent US9512075B2 (OKAYAMA UNIVERSITY, priority 2012, dated 2016).
Values after ≈ are worked out from the molar mass of the structure shown. Like-named read-outs stand apart in the source and are kept apart here.

How the values were obtained:
Assay type in all cases: cell-based
[1] = test system: Enterococcus faecalis 5038 strain; experiment: MIC for Enterococcus faecalis 5038 strain; conditions: read-out: MIC Enterococcus faecalis 5038
[2] = test system: Escherichia coli BE1121 strain; experiment: MIC for Escherichia coli BE1121 strain; conditions: for MIC: Escherichia coli, BE1121STRAIN, read-out: MIC Escherichia coli BE1121
[3] = test system: Staphylococcus aureus MRSA No. 17 (methicillin-resistant Staphylococcus aureus: MRSA); experiment: MIC for Staphylococcus aureus MRSA No. 17; conditions: read-out: MIC Straphyrococcus aureus MRSA No. 17 (MRSA)
[4] = test system: Staphylococcus aureus 209P strain; experiment: MIC for Staphylococcus aureus 209P strain; conditions: for MIC: Staphylococcus aureus, read-out: MIC Straphyrococcus aureus 209P
[5] = test system: Staphylococcus aureus Smith strain; experiment: MIC for Staphylococcus aureus Smith strain; conditions: read-out: MIC Straphyrococcus aureus Smith
[6] = test system: Enterococcus faecalis NCTC12201 strain (vancomycin-resistant Enterococcus: VRE); experiment: MIC for Enterococcus faecalis NCTC12201 strain (VRE); conditions: read-out: MIC Enterococcus faecalis NCTC 12201 (VRE)
[7] = test system: Clostridium perfringens PB6K strain; experiment: microbe, parasite or virus in culture; conditions: CD medium, 37° C. overnight, 10% CO2-containing anaerobic conditions; for MIC: Clostridium perfringens, PB6KSTRAIN, read-out: MIC Clostridium perfringens PB6K, PB6K strain
[8] = test system: Escherichia coli K-12 strain; experiment: MIC for Escherichia coli K-12 strain; conditions: for MIC: Escherichia coli, K12STRAIN, read-out: MIC Escherichia coli K12
[9] = test system: Clostridium difficile JCM1296 strain; experiment: microbe, parasite or virus in culture; conditions: for MIC: Clostridioides difficile, JCM1296, read-out: MIC Clostridium difficile JCM1296
[10] = BE1121 strain, regular bouillon medium, 37° C. overnight, turbidity
[11] = 209P strain, regular bouillon medium, 37° C. overnight, turbidity
[12] = K-12 strain, regular bouillon medium, 37° C. overnight, turbidity
[13] = 5038 strain, Heart Infusion Broth medium, 37° C. overnight, turbidity
[14] = MRSA No. 17, regular bouillon medium, 37° C. overnight, turbidity
[15] = Smith strain, regular bouillon medium, 37° C. overnight, turbidity
[16] = NCTC12201 strain (VRE), Heart Infusion Broth medium, 37° C. overnight, turbidity

CCCCCCCCCC(=O)c1c(O)c2cc(F)ccc2oc1=O [B004, 3-decanoyl-6-fluoro-4-hydroxycoumarin]
MIC ([1]; 5038STRAIN): 0.5 µg/mL (≈ 1.5 µM)
MIC [2, 10]: 2 µg/mL (≈ 5.98 µM)
MIC ([3]; MRSA): 1 µg/mL (≈ 2.99 µM)
MIC [4, 11]: 1 µg/mL (≈ 2.99 µM)
MIC [5]: 0.25 µg/mL (≈ 0.748 µM)
MIC [6]: 0.25 µg/mL (≈ 0.748 µM)
MIC [7]: 0.25 µg/mL (≈ 0.748 µM)
MIC [8, 12]: 256 µg/mL (≈ 766 µM)

CCCCCCCCCC(=O)c1c(O)c2ccc(OC)cc2oc1=O [B001, 3-decanoyl-4-hydroxy-7-methoxycoumarin]
MIC [1, 13]: 64 µg/mL (≈ 185 µM)
MIC [2, 10]: 256 µg/mL (≈ 739 µM)
MIC [3, 14]: 256 µg/mL (≈ 739 µM)
MIC [4, 11]: 256 µg/mL (≈ 739 µM)
MIC [9]: 64 µg/mL (≈ 185 µM)
MIC [5, 15]: 128 µg/mL (≈ 369 µM)
MIC [6, 16]: 64 µg/mL (≈ 185 µM)
MIC [7]: 64 µg/mL (≈ 185 µM)
MIC [8, 12]: 256 µg/mL (≈ 739 µM)

CCCCCCCCCC(O)=C1C(=O)N(C(=O)Nc2ccc(Br)cc2)c2ccccc21 [A039, N-(4-bromophenylaminocarbonyl)-3-decanoyl-2-oxyindole]
MIC [1, 13]: 256 µg/mL (≈ 527 µM)
MIC [2, 10]: 256 µg/mL (≈ 527 µM)
MIC [3, 14]: 256 µg/mL (≈ 527 µM)
MIC [4, 11]: 256 µg/mL (≈ 527 µM)
MIC [9]: 64 µg/mL (≈ 132 µM)
MIC [5, 15]: 256 µg/mL (≈ 527 µM)
MIC [6, 16]: 256 µg/mL (≈ 527 µM)
MIC [7]: 64 µg/mL (≈ 132 µM)
MIC [8, 12]: 256 µg/mL (≈ 527 µM)

CC(=O)N1C(=O)C(=C(O)CCCCCCCCCBr)c2ccccc21 [A024, N-acetyl-3-(10-bromodecanoyl)-2-oxyindole]
MIC [1, 13]: 0.5 µg/mL (≈ 1.22 µM)
MIC [2]: 16 µg/mL (≈ 39.2 µM)
MIC [3, 14]: 16 µg/mL (≈ 39.2 µM)
MIC ([4]; 209P): 16 µg/mL (≈ 39.2 µM)
MIC [9]: 0.5 µg/mL (≈ 1.22 µM)
MIC [5, 15]: 4 µg/mL (≈ 9.8 µM)
MIC [6, 16]: 1 µg/mL (≈ 2.45 µM)
MIC [7]: 0.5 µg/mL (≈ 1.22 µM)
MIC [8]: 128 µg/mL (≈ 313 µM)

CCCCCCCCCCSCC(=O)c1c(O)c2cc(F)ccc2oc1=O [B027]
MIC ([1]; 5038STRAIN): 0.25 µg/mL (≈ 0.634 µM)
MIC [2, 10]: 4 µg/mL (≈ 10.1 µM)
MIC ([3]; MRSA): 1 µg/mL (≈ 2.53 µM)
MIC [4, 11]: 2 µg/mL (≈ 5.07 µM)
MIC [9]: < 0.125 µg/mL
MIC [5]: 0.25 µg/mL (≈ 0.634 µM)
MIC ([6]; NCTC12201|VRE): < 0.125 µg/mL
MIC [7]: 0.25 µg/mL (≈ 0.634 µM)
MIC [8, 12]: 256 µg/mL (≈ 649 µM)

CCCCNC(=O)N1C(=O)C(=C(O)C2CCC(CCCC)CC2)c2ccccc21 (stereo not drawn) [A015, N-(butylaminocarbonyl)-3-(4-butylcyclohexylcarbonyl)-2-oxyindole]
MIC [1, 13]: 8 µg/mL (≈ 20.1 µM)
MIC [2, 10]: 256 µg/mL (≈ 642 µM)
MIC [3, 14]: 256 µg/mL (≈ 642 µM)
MIC [4, 11]: 256 µg/mL (≈ 642 µM)
MIC [9]: 4 µg/mL (≈ 10 µM)
MIC [5, 15]: 256 µg/mL (≈ 642 µM)
MIC [6, 16]: 8 µg/mL (≈ 20.1 µM)
MIC [7]: 8 µg/mL (≈ 20.1 µM)
MIC [8, 12]: 256 µg/mL (≈ 642 µM)

CCCCCCCCCC(=O)N1C(=O)/C(=C(\O)COC)c2ccccc21 [A049, N-decanoyl-3-methoxyacetyl-2-oxyindole]
MIC [1, 13]: 0.5 µg/mL (≈ 1.39 µM)
MIC [2, 10]: 128 µg/mL (≈ 356 µM)
MIC [3, 14]: 256 µg/mL (≈ 712 µM)
MIC [4, 11]: 256 µg/mL (≈ 712 µM)
MIC [9]: 0.5 µg/mL (≈ 1.39 µM)
MIC [5, 15]: 1 µg/mL (≈ 2.78 µM)
MIC [6, 16]: 0.5 µg/mL (≈ 1.39 µM)
MIC [7]: 0.5 µg/mL (≈ 1.39 µM)
MIC [8, 12]: 256 µg/mL (≈ 712 µM)

CCCCCCCCCC(O)=C1C(=O)N(C(=O)OC(C)(C)C)c2cc(Cl)ccc21 [A003, N-Boc-3-decanoyl-6-chloro-2-oxyindole]
MIC [1, 13]: 128 µg/mL (≈ 303 µM)
MIC [2, 10]: 128 µg/mL (≈ 303 µM)
MIC [3, 14]: 256 µg/mL (≈ 607 µM)
MIC [4, 11]: 256 µg/mL (≈ 607 µM)
MIC [9]: 0.5 µg/mL (≈ 1.18 µM)
MIC [5, 15]: 256 µg/mL (≈ 607 µM)
MIC [6, 16]: 128 µg/mL (≈ 303 µM)
MIC [7]: 1 µg/mL (≈ 2.37 µM)
MIC [8, 12]: 256 µg/mL (≈ 607 µM)

CCCCCCCCCC(=O)c1c(O)c2cc(Cl)ccc2oc1=O [B003, 6-chloro-3-decanoyl-4-hydroxycoumarin]
MIC ([1]; 5038STRAIN): 0.5 µg/mL (≈ 1.43 µM)
MIC [2, 10]: 256 µg/mL (≈ 730 µM)
MIC ([3]; MRSA): 2 µg/mL (≈ 5.7 µM)
MIC [4, 11]: 2 µg/mL (≈ 5.7 µM)
MIC [5]: 0.5 µg/mL (≈ 1.43 µM)
MIC [6]: 0.25 µg/mL (≈ 0.713 µM)
MIC [7]: 0.25 µg/mL (≈ 0.713 µM)
MIC [8, 12]: 256 µg/mL (≈ 730 µM)

CCCCCCCCCC(O)=C1C(=O)Nc2ccccc21 [A001, 3-decanoyl-2-oxyindole]
MIC [1, 13]: 16 µg/mL (≈ 55.7 µM)
MIC [2, 10]: 256 µg/mL (≈ 891 µM)
MIC [3, 14]: 32 µg/mL (≈ 111 µM)
MIC [4, 11]: 16 µg/mL (≈ 55.7 µM)
MIC [5, 15]: 32 µg/mL (≈ 111 µM)
MIC [6, 16]: 16 µg/mL (≈ 55.7 µM)
MIC [8, 12]: 256 µg/mL (≈ 891 µM)

CCCCCCCCCCOCC(O)=C1C(=O)N(C(=O)OC(C)(C)C)c2cc(Cl)ccc21 [A056, N-Boc-6-chloro-3-decyloxyacetyl-2-oxyindole]
MIC Escherichia coli BE1121 [2, 10]: 256 µg/mL (≈ 549 µM)
MIC Straphyrococcus aureus 209P [4, 11]: 256 µg/mL (≈ 549 µM)
MIC Clostridium difficile JCM1296 [9]: 4 µg/mL (≈ 8.58 µM)
MIC Clostridium perfringens PB6K ([7]; PB6K strain): 0.5 µg/mL (≈ 1.07 µM)
MIC Escherichia coli K12 [8, 12]: 256 µg/mL (≈ 549 µM)

CCCCCCCCCC(=O)N1C(=O)C(=C(O)c2ccc(F)cc2)c2ccccc21 [A061, N-decanoyl-3-(4-fluorobenzoyl)-2-oxyindole]
MIC ([1]; 5038STRAIN): 4 µg/mL (≈ 9.77 µM)
MIC [2]: 128 µg/mL (≈ 313 µM)
MIC ([3]; MRSA): 64 µg/mL (≈ 156 µM)
MIC ([4]; 209P): 128 µg/mL (≈ 313 µM)
MIC [5]: 2 µg/mL (≈ 4.88 µM)
MIC [6]: 4 µg/mL (≈ 9.77 µM)
MIC [7]: 2 µg/mL (≈ 4.88 µM)
MIC [8]: 128 µg/mL (≈ 313 µM)
